Patent US20170275287A1, “NOVEL N2, N4, N7, 6-TETRASUBSTITUTED PTERIDINE-2,4,7-TRIAMINE AND 2, 4, 6, 7-TETRASUBSTITUTED PTERIDINE COMPOUNDS AND METHODS OF SYNTHESIS AND USE THEREOF” (Janus Biotherapeutics, Inc., priority 2014, published 2017)

Columns and labels:
TLR7 = molecular target: T1, TLR7 (Homo sapiens, UniProt Q9NYK1); assay: TLR7 antagonist assay in human PBMCs (ORN1075, IFNα ELISA); assay type: cell-based; set-up: PBMCs were isolated from unpurified buffy coat from healthy human donors; host or cells: primary human PBMCs; settings: human PBMC, 0.5 μM ORN1075, IFNα readout
T1 sequence (Q9NYK1 27-1049): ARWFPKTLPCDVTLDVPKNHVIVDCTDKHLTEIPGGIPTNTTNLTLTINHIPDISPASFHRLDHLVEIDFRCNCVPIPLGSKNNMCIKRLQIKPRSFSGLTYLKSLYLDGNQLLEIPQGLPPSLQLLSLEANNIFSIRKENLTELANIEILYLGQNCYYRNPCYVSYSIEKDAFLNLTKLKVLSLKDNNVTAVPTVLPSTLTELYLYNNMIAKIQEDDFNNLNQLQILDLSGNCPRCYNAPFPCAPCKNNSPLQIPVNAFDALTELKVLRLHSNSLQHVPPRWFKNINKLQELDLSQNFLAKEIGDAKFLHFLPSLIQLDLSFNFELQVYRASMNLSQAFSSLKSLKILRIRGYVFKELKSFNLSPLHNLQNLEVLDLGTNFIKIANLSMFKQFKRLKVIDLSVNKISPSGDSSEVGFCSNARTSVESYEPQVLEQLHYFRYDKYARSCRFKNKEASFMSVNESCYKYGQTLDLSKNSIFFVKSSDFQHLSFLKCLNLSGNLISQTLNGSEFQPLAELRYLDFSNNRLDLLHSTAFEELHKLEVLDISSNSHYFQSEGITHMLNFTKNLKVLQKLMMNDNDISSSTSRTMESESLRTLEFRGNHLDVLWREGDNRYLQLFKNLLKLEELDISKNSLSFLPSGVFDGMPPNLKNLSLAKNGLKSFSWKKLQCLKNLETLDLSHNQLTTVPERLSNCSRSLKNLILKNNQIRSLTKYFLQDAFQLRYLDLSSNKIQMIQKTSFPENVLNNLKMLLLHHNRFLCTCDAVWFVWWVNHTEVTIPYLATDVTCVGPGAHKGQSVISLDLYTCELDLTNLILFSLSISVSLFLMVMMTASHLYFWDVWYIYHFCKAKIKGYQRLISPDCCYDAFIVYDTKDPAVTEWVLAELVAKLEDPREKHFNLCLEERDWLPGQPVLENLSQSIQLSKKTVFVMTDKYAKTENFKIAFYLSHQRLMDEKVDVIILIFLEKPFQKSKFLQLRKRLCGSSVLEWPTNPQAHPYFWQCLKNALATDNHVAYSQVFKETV
Experimental: (§1) PBMCs were isolated from unpurified buffy coat from healthy human donors (Blood Research Components, LLC). For antagonist testing, cells were plated on 96-well U-bottom plates at 3×10^6 cells/ml. Antagonist compounds were added to cells in duplicate wells and titrated from 10 μM in 1:3 serial dilutions (8 antagonist concentrations tested in total). After approximately 30 minutes, cells were stimulated with agonist compound (see table 2 for agonist concentrations). After stimulation, cells were incubated overnight at 37° C. To increase the stability of the ssRNA, 3 μg/ml DOTAP (Roche) was added to ORN1075 agonist solutions. All dilutions were made in RPMI-1640 media (Sigma, cat.# R7388)+5% human male AB sera (Sigma, cat.# H4522)+1× Penicillin/Streptomycin solution (VWR, cat.#82026-730).
(§2) TLR activity was measured in PBMCs and neutrophils by ELISA using cytokine readouts specific for the TLR of interest.
(§3) IFNα was measured as a readout for TLR7 and TLR9 activity in PBMCs stimulated with either ORN1075, or ODN2395, respectively, using a Human Pan-IFNα ELISA kit (MABTech, cat.#3425-1H-20). PBMC supernatant was diluted 1:3 in PBS+0.05% tween-20+0.1% BSA. Absorbance at 450 nm was recorded using a Molecular Devices SpectraMax340PC plate reader. The IC50 for each antagonist was subsequently calculated following the method described below.
(§4) Raw ELISA datasets for each 96-well plate, consisting of absorbance readings at […], were first imported in Microsoft Excel to calculate the average absorbance for each standard or antagonist concentration. The averaged data was then imported into SigmaPlot v.11.0 where a standard curve was calculated and used to extrapolate the relative concentration of TLR readout (TNFα, IFNα, etc.) produced. The dose-response curve of each antagonist was then plotted with SigmaPlot v.11.0 on a Log scale. Concentrations of TLR readout were converted to a percentage relative to the average maximum concentration for that ELISA plate in Microsoft Excel. The IC50 for each antagonist was then determined with the SigmaPlot regression wizard using a 4-parameter Hill equation. Each antagonist was tested in a minimum of 3 independent experiments and IC50 results were compiled and averaged using Microsoft Excel.

TLR9 = molecular target: T2, TLR9 (Homo sapiens, UniProt Q9NR96); assay: TLR9 antagonist assay in human PBMCs (ODN2395, IFNα ELISA); assay type: cell-based; settings: human PBMC, 0.25 μM ODN2395, IFNα readout
T2 construct: PBMCs were isolated from unpurified buffy coat from healthy human donors; host or cells: primary human PBMCs
T2 sequence (Q9NR96 26-1032): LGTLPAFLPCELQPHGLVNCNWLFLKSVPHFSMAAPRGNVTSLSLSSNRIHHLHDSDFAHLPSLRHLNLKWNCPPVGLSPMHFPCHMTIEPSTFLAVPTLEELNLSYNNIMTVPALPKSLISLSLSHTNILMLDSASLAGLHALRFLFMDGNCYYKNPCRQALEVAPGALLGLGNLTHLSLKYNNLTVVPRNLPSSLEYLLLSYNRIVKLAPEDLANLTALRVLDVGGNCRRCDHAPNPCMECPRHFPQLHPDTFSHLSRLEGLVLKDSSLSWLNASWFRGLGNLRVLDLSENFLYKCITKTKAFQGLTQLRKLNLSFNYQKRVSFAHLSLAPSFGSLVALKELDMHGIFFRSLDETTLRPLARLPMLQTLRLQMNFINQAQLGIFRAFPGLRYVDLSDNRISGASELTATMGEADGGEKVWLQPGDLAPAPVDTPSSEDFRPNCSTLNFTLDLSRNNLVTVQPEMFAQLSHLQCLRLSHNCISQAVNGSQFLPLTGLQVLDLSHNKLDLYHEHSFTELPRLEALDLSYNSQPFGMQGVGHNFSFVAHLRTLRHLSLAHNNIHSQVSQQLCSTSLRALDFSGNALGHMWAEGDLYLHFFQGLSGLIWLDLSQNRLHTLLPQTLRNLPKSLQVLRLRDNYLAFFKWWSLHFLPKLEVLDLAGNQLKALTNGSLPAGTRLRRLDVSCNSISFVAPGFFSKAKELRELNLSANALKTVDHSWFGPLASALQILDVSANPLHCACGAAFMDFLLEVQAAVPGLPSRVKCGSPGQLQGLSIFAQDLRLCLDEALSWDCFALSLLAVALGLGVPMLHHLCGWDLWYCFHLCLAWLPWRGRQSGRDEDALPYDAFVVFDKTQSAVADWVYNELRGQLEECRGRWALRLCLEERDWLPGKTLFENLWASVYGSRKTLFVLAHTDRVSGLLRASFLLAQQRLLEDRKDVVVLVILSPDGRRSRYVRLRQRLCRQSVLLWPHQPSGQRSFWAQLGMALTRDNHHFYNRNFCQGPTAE
Experimental: as §1, §2, §3, §4

Row | Structure (SMILES) | IC50 (TLR7) | IC50 (TLR9)
1 | CN1CCN(c2nc3nc(-c4ccccc4)nc(NCCN4CCOCC4)c3nc2OCCN2CCOCC2)CC1 [JB6116] | 81 nM | 297 nM
2 | CN1CCN(c2nc(NCCN3CCOCC3)c3nc(Cl)c(NCCN4CCOCC4)nc3n2)CC1 [JB6121, 6-chloro-2-(4-methylpiperazin-1-yl)-N^4,N^7-bis(2-morpholinoethyl)pteridine-4,7-diamine] | 25 nM | 146 nM
3 | Clc1nc2c(NCCN3CCOCC3)nc(N3CCOCC3)nc2nc1NCCN1CCOCC1 [JB6147] | 223 nM | 8680 nM
4 | CN1CCN(c2nc(NCCN3CCOCC3)c3ncc(-c4ccccc4)nc3n2)CC1 [JB6059] | 143 nM | 305 nM
5 | CCOc1nc2c(NCCN3CCOCC3)nc(NCc3ccccc3)nc2nc1NCCN1CCOCC1 [JB6180] | 502 nM | 114 nM
6 | CCCCNc1nc(NCCN2CCOCC2)c2nc(Cl)c(NCCN3CCOCC3)nc2n1 [JB6140] | 238 nM | 101 nM

More lines, now with the values ahead:

Row | IC50 (TLR7) | IC50 (TLR9) | Structure (SMILES)
7 | 24 nM | 54 nM | C[C@@H]1CN(CCNc2nc3nc(N4CCN(C)CC4)nc(NCCN4C[C@@H](C)O[C@@H](C)C4)c3nc2Cl)C[C@H](C)O1 [JB6143]
8 | 62 nM | 167 nM | Clc1nc2c(NCCN3CCOCC3)nc(NCc3ccccc3)nc2nc1NCCN1CCOCC1 [JB6172]
9 | 64 nM | 326 nM | CCOc1nc2c(NCCN3CCCC3)nc(-c3ccccc3)nc2nc1N1CCN(C)CC1 [JB6131]
10 | 74 nM | 61 nM | CCCCNc1nc(NCCN2CCOCC2)c2nc(SCC)c(NCCN3CCOCC3)nc2n1 [JB6185]
11 | 28 nM | 60 nM | COCCN1CCN(c2nc(NCCN3CCOCC3)c3nc(Cl)c(NCCN4CCOCC4)nc3n2)CC1 [JB6160]
